According to PubChem BioAssay (NCI):
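A five-concentration, 48-hour dose response in 96-well plates underlies each endpoint, interpolated linearly between surrounding concentrations. Here, GI50 denotes the concentration required for 50% inhibition of growth. The concentration for full growth arrest is given as TGI.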

Key:
Assay in all cases: inhibition of tumour cell growth, NCI panel, 48 h
786-0 renal = tested on: 786-0 renal
A498 renal = tested on: A498 renal
A549 NSCLC = tested on: A549 NSCLC
MALME-3M melanoma = tested on: MALME-3M melanoma
NCI-H460 lung = tested on: NCI-H460 lung
NCI/ADR-RES ovarian = tested on: NCI/ADR-RES ovarian
SF-295 CNS = tested on: SF-295 CNS
TK-10 renal = tested on: TK-10 renal
RXF 393 renal = tested on: RXF 393 renal
PC-3 prostate = tested on: PC-3 prostate

Structure (SMILES)	TGI (786-0 renal)	TGI (A498 renal)	TGI (A549 NSCLC)	TGI (MALME-3M melanoma)	TGI (NCI-H460 lung)	TGI (NCI/ADR-RES ovarian)	TGI (SF-295 CNS)	TGI (TK-10 renal)	TGI (RXF 393 renal)	GI50 (786-0 renal)	GI50 (A549 NSCLC)	GI50 (MALME-3M melanoma)	GI50 (NCI-H460 lung)	GI50 (NCI/ADR-RES ovarian)	GI50 (PC-3 prostate)	TGI (PC-3 prostate)	GI50 (RXF 393 renal)	GI50 (SF-295 CNS)	GI50 (TK-10 renal)	GI50 (A498 renal)
C#CC1(OC(C)=O)CCC2C3CC=C4C=C(OC(C)=O)CCC4(C)C3CCC21C (centres undefined)	85.5 µM	> 100 µM	> 100 µM	33.9 µM	61.8 µM	79.3 µM	62 µM	51.6 µM	–	–	–	–	–	–	–	–	–	–	–	–
O=C(O)NC(c1ccccc1)C(NC(=O)c1ccccc1)c1ccccc1 (centres undefined)	> 100 µM	> 100 µM	> 100 µM	> 100 µM	> 100 µM	–	> 100 µM	> 100 µM	> 100 µM	–	–	–	–	–	–	–	–	–	–	–
CC1=C(C(=O)Nc2cc(=O)n(C)c(=O)n2C)C(c2cccc([N+](=O)[O-])c2)C(C(=O)Nc2cc(=O)n(C)c(=O)n2C)=C(C)N1	> 100 µM	> 100 µM	> 100 µM	> 100 µM	> 100 µM	–	> 100 µM	> 100 µM	> 100 µM	–	–	–	–	–	–	–	–	–	–	–
CCN(CC)CCCNC(=O)C1COc2cc(-c3cc(=O)c4ccccc4o3)ccc2O1 (centres undefined)	> 100 µM	> 100 µM	> 100 µM	36.8 µM	> 100 µM	–	> 100 µM	> 100 µM	> 100 µM	–	–	–	–	–	–	–	–	–	–	–
C[C@]12CCC(=O)C(O)=C1CC[C@@H]1C2CC[C@]2(C)NC(=O)CCC12 (some centres undefined)	> 100 µM	> 100 µM	> 100 µM	> 100 µM	> 100 µM	–	> 100 µM	> 100 µM	> 100 µM	–	–	–	–	–	–	–	–	–	–	–
COc1ccc(-c2cc(=O)c3ccccc3o2)cc1N	> 100 µM	> 100 µM	> 100 µM	> 100 µM	> 100 µM	–	> 100 µM	> 100 µM	> 100 µM	–	–	–	–	–	–	–	–	–	–	–
C=C(NC(=O)C(=C)NC(=O)c1csc(C2=NC3c4csc(n4)C4NC(=O)c5csc(n5)C(C(C)(O)C(C)O)NC(=O)C5CSC(=N5)C(=CC)NC(=O)C(C(C)O)NC(=O)c5csc(n5)C3(CC2)NC(=O)C(C)NC(=O)C(=C)NC(=O)C(C)NC(=O)C(C(C)CC)NC2C=Cc3c(C(C)O)cc(nc3C2O)C(=O)OC4C)n1)C(N)=O (centres undefined)	19.7 µM	–	> 100 µM	> 100 µM	> 100 µM	> 100 µM	66.9 µM	> 100 µM	7.88 µM	5.49 µM	57.3 µM	3.14 µM	17 µM	> 100 µM	77.5 µM	> 100 µM	2.44 µM	21.2 µM	65.5 µM	–
O=C1c2ccccc2-c2oc(=O)c3ccccc3c21	> 100 µM	> 100 µM	–	–	> 100 µM	> 100 µM	> 100 µM	> 100 µM	> 100 µM	–	–	–	–	–	–	> 100 µM	–	–	–	–
CC(=O)OC1CCn2nnc(CO)c21 (centres undefined)	> 100 µM	–	> 100 µM	> 100 µM	> 100 µM	–	> 100 µM	> 100 µM	> 100 µM	–	–	–	–	–	–	–	–	–	–	–
C=C(C)[C@@H]1CC[C@]2(C(=O)O)CC[C@]3(C)[C@H](CC[C@@H]4[C@@]5(C)CCC(NC(=O)c6cccc(OC(C)=O)c6OC(C)=O)C(C)(C)[C@@H]5CC[C@]43C)[C@@H]12 (some centres undefined)	3.47 µM	1.97 µM	2.47 µM	1.47 µM	1.42 µM	6.43 µM	3.89 µM	> 100 µM	3.12 µM	0.661 µM	0.409 µM	0.317 µM	0.38 µM	0.817 µM	–	–	1 µM	0.562 µM	0.656 µM	0.644 µM
